Assay results published in patent US20200207726A1, “INDOLINYL SULFONAMIDE AND RELATED COMPOUNDS FOR USE AS AGONISTS OF RORY AND THE TREATMENT OF DISEASE” (Lycera Corporation, priority 2017, published 2020).

Key:
RORγ-LBD = biological target: T1, RORγ-LBD (Homo sapiens, UniProt P51449); assay: RORγ-Ligand Binding Domain (LBD) TR-FRET Assay; format: biochemical; details: for TR-FRET Assay Max Response: upper plateau of 4-parameter fit, signal in absence of ursolic acid or test compound set as 100; for EC50: with 2 μM ursolic acid (RORγ antagonist), highest test concentration 10 μM
T1 construct: made in house; host or cells: SF9 cells, baculovirus expression system (lysate used)
T1 sequence (P51449 269-508 limits assumed): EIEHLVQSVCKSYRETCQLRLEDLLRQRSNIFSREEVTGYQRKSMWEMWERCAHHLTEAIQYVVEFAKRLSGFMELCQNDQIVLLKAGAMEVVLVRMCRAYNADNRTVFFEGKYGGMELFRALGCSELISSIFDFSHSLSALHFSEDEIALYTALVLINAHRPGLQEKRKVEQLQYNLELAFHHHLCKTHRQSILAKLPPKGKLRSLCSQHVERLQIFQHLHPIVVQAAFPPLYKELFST
Description: HIS-tagged RORγ-LBD protein was expressed in SF9 cells using a baculovirus expression system. The lysate was diluted in assay buffer (50 mM Tris pH 7.0, 50 mM KCl, 1 mM EDTA, 0.1 mM DTT, 0.01% BSA) to obtain RORγ-LBD final concentration of −3 nM in a 384-well assay plate (need to titrate for each batch of protein).
A stock of biotinylated-LXXLL peptide from coactivator SRC1 (Biotin-[…]) was prepared in assay buffer and added to each well (200 nM final concentration). A solution of Europium tagged anti-HIS antibody (0.6 nM final concentration) and APC-conjugated streptavidin (30 nM final concentration) were also added to each well. RORγ antagonist ursolic acid was also included at a final concentration of 2 μM. Compounds were diluted in DMSO and further diluted in assay buffer with a final DMSO concentration at 1%. The highest concentration of test compound analyzed was 10 μM.
The final assay mixture was incubated overnight at 4° C. or 2 hours at room temperature, and the fluorescence signal was measured on an Envision plate reader: (Excitation filter=340 nm; APC emission=665 nm; Europium emission=615 nm; dichroic mirror=D400/D630; delay time=100 μs, integration time=200 μs). 50% Effective concentration (EC50) values for test compounds were calculated from the quotient of the fluorescence signal at 665 nm divided by the fluorescence signal at 615 nm. The quotient of the fluorescence signals in the absence of ursolic acid or test compound is set as 100. Max Response is defined as the upper plateau in the signal as determined by line-fit using a 4-parameter logistic model in PRISM (GraphPad).

Gal4-RORγ-LBD = biological target: T2, Gal4-RORγ-LBD (Homo sapiens, UniProt P51449); assay: Gal4-RORγ Luciferase Reporter Assay in HEK-293T Cells; format: cell-based; details: for EC50: HEK-293 cells, with 2 μM ursolic acid, overnight incubation; for Gal4-RORγ Assay Max Response: upper plateau of 4-parameter fit, luciferase signal in absence of ursolic acid or test compound defined at 100
T2 construct: expressed in transfected cells; host or cells: HEK-293 cells, pcDNA3.1neo plasmid
T2 sequence (P51449 269-508 limits assumed): T1 sequence (P51449 269-508 limits assumed)
Description: In the following protocol, HEK-293 cells were transfected with a construct comprising the Gal4 DNA binding domain fused to the ligand binding domain of RORγ (Gal4-RORγ-LBD) in a pcDNA3.1neo plasmid, and also with a reporter construct comprising pGL4.31 Gal4-luciferase (Promega). Control cells were prepared similarly using empty pcDNA3.1neo and pGL4.31 vectors.
Trans-IT reagent (Mirus, 60 μL) at room temperature was added drop wise to OptiMEM (Invitrogen, 1.5 ml). This reagent mixture was mixed by inversion then incubated for 5 to 30 minutes at room temperature. It then was added to a solution of both expression vectors (5 μg each), mixed, and incubated at room temperature for about 20 minutes. HEK-293 cells were harvested from incubation flasks by removing the media, treating with TrypLE Express (Invitrogen), and incubating until the cells detached from the bottom of the flask (approximately 2-5 minutes). 10 Million cells were collected by centrifugation and re-suspended in 10 mL of Dulbecco's Modified Eagle Medium, High Glucose (DMEM, Invitrogen) containing 10% Fetal Bovine Serum and 100 IU each of penicillin and streptomycin. The re-suspended cells and the transfection mixture were added to a T75 flask, mixed and incubated overnight at 37° C. and 5% CO2.
The cells were harvested as described above, counted, and centrifuged to obtain the desired number of cells, then re-suspended in complete growth media at 0.75×10^6 cells/mL. The RORγ antagonist, ursolic acid, was added to the cells at a final concentration of 2 μM. Cells were plated at 20 μL of cell suspension/well (10,000-15,000 cells/well) in white tissue culture treated 384 well plates. Test compounds were dissolved at 10 mM in DMSO then diluted into complete growth medium to 5× the final intended test concentration. These drug stock solutions, 5 μL/well were added to the tissue culture plate. The final DMSO concentration was 0.2%. The plates were briefly centrifuged then incubated overnight at 37° C. and 5% CO2. To conduct the assay, the tissue culture plates were allowed to equilibrate to room temperature and One-Glo luciferase reagent (Promega, 25 μL/well) was added. The plates were briefly centrifuged then incubated at room temperature for 10 minutes. The luciferase intensity was read on an Envision plate reader (Perkin Elmer). RORγ activity was determined relative to controls and plotted as a function of test compound concentration using PRISM (GraphPad) to determine a 50% effective concentration (EC50). The luciferase signal in the absence of ursolic acid or test compound is defined at 100. The Max Response is the upper plateau in the signal as determined by line-fit using a 4-parameter logistic model in PRISM (GraphPad).

| SMILES | EC50 (RORγ-LBD) [nM] | EC50 (Gal4-RORγ-LBD) [nM] | TR-FRET Assay Max Response (RORγ-LBD) | Gal4-RORγ Assay Max Response (Gal4-RORγ-LBD) |
| --- | --- | --- | --- | --- |
| CCOC(=O)CC1CN(S(=O)(=O)c2cccc(C(F)(F)F)c2)c2cc(-c3cc(F)ccc3F)ccc21 (stereo not drawn) [Example 2, ethyl 2-(6-(2,5-difluorophenyl)-1-((3-(trifluoromethyl)phenyl)sulfonyl)indolin-3-yl)acetate] | < 500 | < 500 | *** (a value in the range of greater than 150 to 200) | ** (a value in the range of greater than 90 to 150) |
| COC(=O)CCc1cc2ccc(-c3cc(F)ccc3F)cc2n1S(=O)(=O)c1cccc(C(F)(F)F)c1 [Example 7, methyl 3-(6-(2,5-difluorophenyl)-1-((3-(trifluoromethyl)phenyl)sulfonyl)-1H-indol-2-yl)propanoate] | 500 to 5000 | 500 to 5000 | *** (a value in the range of greater than 150 to 200) | * (a value in the range of 25 to 90) |
| O=S(=O)(c1cccc(C(F)(F)F)c1)N1COc2ccc(-c3cc(F)ccc3F)cc21 [Example 1, 5-(2,5-difluorophenyl)-3-((3-(trifluoromethyl)phenyl)sulfonyl)-2,3-dihydrobenzo[d]oxazole] | < 500 | < 500 | *** (a value in the range of greater than 150 to 200) | ** (a value in the range of greater than 90 to 150) |
| O=S(=O)(c1cccc(C(F)(F)F)c1)c1c[nH]c2ccc(-c3cc(F)ccc3F)cc12 [Example 4, 5-(2,5-difluorophenyl)-3-((3-(trifluoromethyl)phenyl)sulfonyl)-1H-indole] | – | > 10000 | – | * (a value in the range of 25 to 90) |

Continued, in another order:

| EC50 (RORγ-LBD) [nM] | EC50 (Gal4-RORγ-LBD) [nM] | SMILES | TR-FRET Assay Max Response (RORγ-LBD) | Gal4-RORγ Assay Max Response (Gal4-RORγ-LBD) |
| --- | --- | --- | --- | --- |
| < 500 | < 500 | COC(=O)CCC1Cc2ccc(-c3cc(F)ccc3F)cc2N1S(=O)(=O)c1cccc(C(F)(F)F)c1 (stereo not drawn) [Example 5, methyl 3-(6-(2,5-difluorophenyl)-1-((3-(trifluoromethyl)phenyl)sulfonyl)indolin-2-yl)propanoate] | *** (a value in the range of greater than 150 to 200) | ** (a value in the range of greater than 90 to 150) |
| < 500 | 500 to 5000 | O=C(O)CCC1Cc2ccc(-c3cc(F)ccc3F)cc2N1S(=O)(=O)c1cccc(C(F)(F)F)c1 (stereo not drawn) [Example 6, 3-(6-(2,5-difluorophenyl)-1-((3-(trifluoromethyl)phenyl)sulfonyl)indolin-2-yl)propanoic acid] | *** (a value in the range of greater than 150 to 200) | *** (a value in the range of greater than 150 to 200) |
| 500 to 5000 | 500 to 5000 | O=C(O)CCc1cc2ccc(-c3cc(F)ccc3F)cc2n1S(=O)(=O)c1cccc(C(F)(F)F)c1 [Example 8, 3-(6-(2,5-difluorophenyl)-1-((3-(trifluoromethyl)phenyl)sulfonyl)-1H-indol-2-yl)propanoic acid] | *** (a value in the range of greater than 150 to 200) | ** (a value in the range of greater than 90 to 150) |
| < 500 | 5000 to 10000 | O=C(O)CC1CN(S(=O)(=O)c2cccc(C(F)(F)F)c2)c2cc(-c3cc(F)ccc3F)ccc21 (stereo not drawn) [Example 3, 2-(6-(2,5-difluorophenyl)-1-((3-(trifluoromethyl)phenyl)sulfonyl)indolin-3-yl)acetic acid] | ** (a value in the range of greater than 90 to 150) | ** (a value in the range of greater than 90 to 150) |
